# Where a SMILES comes first, the peptide text is derived from it. [ ]: non-standard residue; d: D form. pS = N[C@@H](COP(=O)(O)O)C(=O)O
# Tests used:
# JNK [1] = experiment: Phosphorylation of Bcl-2 loop peptides by JNK (HPLC); assay type: biochemical; conditions: peptide 200 µM, JNK 10 µM, 10 mM Tris-HCl pH 7.5, 25 mM MgCl2, 1 mM EGTA, 1 mM ATP, 30°C, 1 h; C-18 HPLC, 225 nm
# Protocol: (§1) For the phosphorylation of Bcl-2 by JNK, the purified Bcl-2 (6 µM) was incubated with 0.5 µM JNK for 1 h at 30°C in a buffer containing 10 mM Tris-HCl pH 7.5, 25 mM MgCl2, 1 mM EGTA, 1 mM ATP, 1 µCi γ-^32P-ATP, and 250 µM PMSF. For the phosphorylation of Bcl-2 by ERK2, ERK2 was incubated with purified Bcl-2 in a buffer containing 50 mM Tris-HCl, 10 mM MgCl2, 2 mM dithiothreitol (DTT), 1 mM EGTA, and 0.01% Brij 35 detergent, pH 7.5. The samples were separated on 12.5% gels by SDS-PAGE and visualized using autoradiography.
# (§2) The loop peptides (200 µM) were mixed with JNK or ERK2 (10 µM) in the reaction buffer as described above in the “Phosphorylation of Bcl-2”. The reaction was performed at 30°C for 1 h. The samples were passed through a Ni^2+-NTA column to remove kinases fused with the histidine-tag, and the flow-through samples were combined and loaded on a C-18 column for HPLC analysis. The samples (20 µl) were injected into the C-18 column with a flow rate of 1 ml/min. The peptide was eluted with a linear gradient of acetonitrile from 0 to 30%, and the peptide peaks were detected at 225 nm.
# (§3) Supplementary file pone.0052047.s001.tif: Figure S1 Phosphorylation of Bcl-2 in the loop domain by ERK2 and JNK. (A–B) Different peptides (200 µM) were added into the reaction mixture with either (A) JNK (10 µM) or (B) ERK2 (10 µM). After reaction at 30°C for 1 h, the samples were heated at 90°C to inactivate the kinase and loaded onto C-18 column for reverse phase-HPLC analysis. (C) Point mutations of Bcl-2 (T56A and S87A) were used for the kinase reaction as described in “Materials and methods”, and the phosphorylation reactions were analyzed by using γ-^32P-ATP and followed by autoradiography. […] (E) The wild-type Bcl-2 and the flexible loop-deletion Bcl-2 mutant Bcl-2, Δ(V35–V89):6A were subject to the phosphorylation reactions by ERK2 and JNK. 1, Bcl-2 with ERK2; 2, Bcl-2Δ(V35–V89):6A with ERK2; 3, Bcl-2 with JNK; 4, Bcl-2Δ(V35–V89):6A with JNK. (TIF) Click here for additional data file.
# ERK2 [2] = experiment: Phosphorylation of Bcl-2 loop peptides by ERK2 (HPLC); assay type: biochemical; conditions: peptide 200 µM, ERK2 10 µM, 50 mM Tris-HCl, 10 mM MgCl2, 2 mM DTT, 1 mM EGTA, 0.01% Brij 35, pH 7.5, 30°C, 1 h; C-18 HPLC, 225 nm
# Protocol: as §1, §2, §3
# ERK2 [3] = experiment: Phosphorylation of Bcl-2 proteins by ERK2 (γ-32P-ATP, autoradiography); assay type: biochemical; conditions: 50 mM Tris-HCl, 10 mM MgCl2, 2 mM DTT, 1 mM EGTA, 0.01% Brij 35, pH 7.5, SDS-PAGE
# Protocol: as §1
# (§4) Supplementary file pone.0052047.s001.tif: Figure S1 Phosphorylation of Bcl-2 in the loop domain by ERK2 and JNK. (A–B) Different peptides (200 µM) were added into the reaction mixture with either (A) JNK (10 µM) or (B) ERK2 (10 µM). After reaction at 30°C for 1 h, the samples were heated at 90°C to inactivate the kinase and loaded onto C-18 column for reverse phase-HPLC analysis. (C) Point mutations of Bcl-2 (T56A and S87A) were used for the kinase reaction as described in “Materials and methods”, and the phosphorylation reactions were analyzed by using γ-^32P-ATP and followed by autoradiography. […] (E) The wild-type Bcl-2 and the flexible loop-deletion Bcl-2 mutant Bcl-2, Δ(V35–V89):6A were subject to the phosphorylation reactions by ERK2 and JNK. 1, Bcl-2 with ERK2; 2, Bcl-2Δ(V35–V89):6A with ERK2; 3, Bcl-2 with JNK; 4, Bcl-2Δ(V35–V89):6A with JNK. […]
# JNK [4] = experiment: Phosphorylation of Bcl-2 proteins by JNK (γ-32P-ATP, autoradiography); assay type: biochemical; conditions: Bcl-2 6 µM, JNK 0.5 µM, 1 h at 30°C, pH 7.5, γ-32P-ATP, SDS-PAGE
# Protocol: as §1, §4
# Pin1 [5] = target: T1, Pin1 (Homo sapiens, UniProt Q13526); experiment: 1H-15N HSQC of 15N-Pin1 with peptide
# Pin1 [6] = target: T1, Pin1; experiment: Binding of peptides to 15N-labeled Pin1 by 2D 1H-15N HSQC NMR titration; design: decahistidine (10His) (N); made in house; own knowledge; conditions: 0.1 mM 15N-labeled Pin1, 90% H2O/10% D2O, 20 mM phosphate pH 7.0, 20 mM NaCl, 1 mM DTT, 0.01% NaN3, 300 K; HSQC chemical shift change vs ligand/protein ratio
# Protocol: NMR data were acquired at 300 K on a Bruker Avance 600 equipped with a cryoprobe accessory. The NMR samples contained 0.1 mM ^15N-labeled Pin 1 in 90% H2O/10% D2O in 20 mM phosphate buffer, pH 7.0, 20 mM NaCl, 1 mM DTT, 0.01% NaN3. Chemical shift perturbations were monitored with 2D ^1H-^15N heteronuclear single quantum correlation spectroscopy (HSQC) upon addition of peptides. NMR spectra were processed using Bruker Topspin1.3. For the dissociation constant determination, lyophilized aliquots of peptides were mixed with ^15N-labeled Pin1 with different molar ratios and 2D ^15N HSQC was recorded. The dissociation constant, KD is expressed as [P]*[L]/[PL] and calculated as previously described, [21], [22].
# Figure 3 Pin 1 binds to the phosphopeptide derived from the flexible loop of Bcl-2. The ^15N-labeled Pin1 (0.1 mM) was recorded with (A) 0.8 mM S87 and (B) phosphorylated S87 (pS87). The ^1H-^15N-HSQC spectra with or without peptide are show in blue and red, respectively. (C, D) Some of the amino acid chemical shifts change with the increasing peptide concentration. The arrows show the direction of chemical shift perturbations with an increasing concentration of ligand. (E, F) The relationship between chemical shift change and the ratio between ligand and protein was drawn. Values of KD were calculated from the graphs using the equation described in “Materials and methods”.
# Pin1 [7] = target: T1, Pin1; experiment: 1H-15N HSQC titration of 15N-Pin1; conditions: reference: unphosphorylated S87 peptide; sites S87
Compound,degree of phosphorylation by JNK (JNK [1]),degree of phosphorylation by ERK2 (ERK2 [2]),further results
"PVARTSPLQT [S70, synthetic peptide derived from the Bcl-2 loop covering S70]",poorly phosphorylated,poorly phosphorylated,–
Bcl-2/S87A: single mutant form of Bcl-2 protein,–,–,ERK2-mediated phosphorylation of Bcl-2 protein (ERK2 [3]): affected; JNK-mediated phosphorylation of Bcl-2 protein (JNK [4]): affected
Bcl-2 (from UniProt P10415) pT74 peptide,–,–,"binding against the reference (Pin1 [5]; reference: unphosphorylated T74 peptide, sites T74): gained"
"PLQTPAAPGA [T74, synthetic peptide derived from the Bcl-2 loop covering T74]",poorly phosphorylated,poorly phosphorylated,–
CC(C)C[C@H](NC(=O)[C@H](C)NC(=O)[C@@H]1CCCN1C(=O)CN)C(=O)N[C@@H](COP(=O)(O)O)C(=O)N1CCC[C@H]1C(=O)N[C@H](C(=O)N1CCC[C@H]1C(=O)N1CCC[C@H]1C(=O)N[C@H](C(=O)O)C(C)C)C(C)C [pS87] (H-GPAL[pS]PVPPV-OH),–,–,Kd (Pin1 [6]): ~140 µM
Bcl-2 (from UniProt P10415) pS87 peptide,–,–,binding against the reference (Pin1 [7]): gained; reference no interaction
Bcl-2 (from UniProt P10415) pT56 peptide,–,–,"binding against the reference (Pin1 [5]; reference: unphosphorylated T56 peptide, sites T56): gained"
"QPGHTPHPAA [T56, synthetic peptide derived from the Bcl-2 loop covering T56]",able to phosphorylate the T56 peptide to a similar level,able to phosphorylate the T56 peptide to a similar level,–
Bcl-2/T56A: single mutant form of Bcl-2 protein,–,–,JNK-mediated phosphorylation of Bcl-2 protein (JNK [4]): abolished
"GPALSPVPPV [S87, synthetic peptide derived from the Bcl-2 loop covering S87]",preferred phosphorylation,preferred phosphorylation,–
